In patent publication US20250122192A1, “5-PYRIMIDINECARBOXAMIDE DERIVATIVES AND METHODS OF USING THE SAME” (Rgenta Therapeutics, Inc., priority 2021, published 2025):
Counter-ions that a name gives are not always drawn.

tested on: PMS1; test: Mini-gene reporter assay-PMS1; assay type: cell-based; conditions: Homo sapiens, HEK293, PMS1 mini-gene firefly luciferase reporter transiently transfected into HEK293 cells; read-out: PMS1 IC50
Source text: Biological Activity of the Compounds of the Present Disclosure Mini-gene reporter assay-PMS1
Mini-gene reporter constructs for each target site can be constructed by first PCR amplifying the region-of-interest including the sequence of the alternatively skipped, sequences of the immediate upstream and downstream introns, and sequences of the immediate upstream and downstream exons. Then the 3′end of the amplified sequence can be ligated to a firefly luciferase reporter gene and cloned into the pcDNA3.1 vector backbone. The final reporter construct can be transiently transfected into HEK293 cells using Lipofectamine 3000 transfection reagents. Compounds that can induce the inclusion of the skipped exon in the reporter construct would increase the reporter firefly luciferase activity.
Test compounds may be diluted in duplicates and dispensed into an assay plate. Transient mini-gene reporter cell line stock is resuspended and dispensed into the assay plate. Assay plates are then centrifuged and incubated. A luciferase reagent (e.g. ONE-Glo firefly luciferase reagent from Promega®) may be added to the assay plate and the luminescence (RLU) signals recorded. PMS1 EC50 values may be determined by curve fitting in Levenberg-Marquardt algorithm.

SMILES	IC50
CCOc1nc(N(C)[C@H]2CCCNC2)ncc1C(=O)Nc1cc(F)c2nc(C)cn2c1 [Compound 163]	< 500 nM
CCOc1nc(N2CCNC(C)(C)C2)ncc1C(=O)Nc1cc(F)c2nn(C)cc2c1 [Compound 265, 2-(3,3-dimethylpiperazin-1-yl)-4-ethoxy-N-(7-fluoro-2-methyl-2H-indazol-5-yl)pyrimidine-5-carboxamide]	> 3000 nM
CCOc1nc(N2CC3(CC(NC)CO3)C2)ncc1C(=O)Nc1cc(F)c2nc(C)cn2c1 (stereo not drawn) [Compound 246]	< 500 nM
CCOc1nc(N2CCC(NC)C2)ncc1C(=O)Nc1cc(OC)c2nn(C)cc2c1 (stereo not drawn) [Compound 278, 4-ethoxy-N-(7-methoxy-2-methyl-2H-indazol-5-yl)-2-(3-(methylamino)pyrrolidin-1-yl)pyrimidine-5-carboxamide formate]	< 500 nM
CCOc1nc(N2CCOC3(CNC3)C2)ncc1C(=O)Nc1cc(F)c2nc(C)cn2c1 [Compound 144]	> 3000 nM
CCOc1nc(N2CCCC(C3CCCCN3)C2)ncc1C(=O)Nc1cc(F)c2nc(C)cn2c1 (stereo not drawn) [Compound 147]	< 500 nM
CCOc1nc(N(C)C2CC3CCC(C2)N3)ncc1C(=O)Nc1cn2cc(C)nc2c(C)n1 (stereo not drawn) [Compound 37]	< 500 nM
CCOc1nc(N2CCC3(CCCCN3)C2)ncc1C(=O)Nc1cn2cc(C)nc2c(C)n1 (stereo not drawn) [Compound 96]	1000 to 3000 nM
CCOc1nc(N2CCC3(CCN3)C2)ncc1C(=O)Nc1cn2cc(C)nc2c(C)n1 (stereo not drawn) [Compound 82]	1000 to 3000 nM
CCOc1nc(N2CC[C@H]3CCN[C@H]3C2)ncc1C(=O)Nc1cc(F)c2nc(C)cn2c1 (racemic) [Compound 198]	1000 to 3000 nM
CCOc1nc(N2CCC3(CNC3)C2)ncc1C(=O)Nc1cc(F)c2nc(C)cn2c1 [Compound 220]	< 500 nM
CCOc1nc(N2C[C@@H]3C[C@H]2CN3)ncc1C(=O)Nc1cn2cc(C)nc2c(C)n1 [Compound 55]	> 3000 nM
CCOc1nc(N2CCOC3(CCCNC3)C2)ncc1C(=O)Nc1cc(F)c2nc(C)cn2c1 (stereo not drawn) [Compound 145]	> 3000 nM
CCOc1nc(N2CCN(C3CCNC3)CC2)ncc1C(=O)Nc1cc(F)c2nc(C)cn2c1 (stereo not drawn) [Compound 224]	1000 to 3000 nM
CCOc1nc(N2CCNCC2)ncc1C(=O)Nc1cc(F)c2nc(C)oc2c1 [Compound 12, 4-ethoxy-N-(4-fluoro-2-methyl-1,3-benzoxazol-6-yl)-2-(piperazin-1-yl)pyrimidine-5-carboxamide]	1000 to 3000 nM
CCOc1nc(N2CCNCC2C(F)F)ncc1C(=O)Nc1cc(F)c2nc(C)cn2c1 (stereo not drawn) [Compound 112]	1000 to 3000 nM
CCOc1nc(N2CC[C@@H](NC)C2)ncc1C(=O)Nc1cc(F)c2nc(C)cn2c1 [Compound 262, (R)-4-ethoxy-N-(8-fluoro-2-methylimidazo[1,2-a]pyridin-6-yl)-2-(3-(methylamino)pyrrolidin-1-yl)pyrimidine-5-carboxamide formate]	< 500 nM
CCOc1nc(N2CCC(C3CCCN3)CC2)ncc1C(=O)Nc1cc(F)c2nc(C)cn2c1 (stereo not drawn) [Compound 203]	< 500 nM
CCOc1nc(N2CC3CCC2C2CNCC32)ncc1C(=O)Nc1cc(F)c2nc(C)cn2c1 (stereo not drawn) [Compound 128]	< 500 nM
CCOc1nc(N2CC3(CNC3)C2)ncc1C(=O)Nc1cc(F)c2nc(C)cn2c1 [Compound 206]	< 500 nM
CCOc1nc(N2CCC3(CC2)CNC3)ncc1C(=O)Nc1cc(F)c2nc(C)cn2c1 [Compound 235]	< 500 nM
CCOc1nc(N2CCC3(CCCNC3)C2)ncc1C(=O)Nc1cc(F)c2nc(C)cn2c1 (stereo not drawn) [Compound 208]	< 500 nM

SMILES	IC50
CCOc1nc(N2CCNCCC2C)ncc1C(=O)Nc1cn2cc(C)nc2c(C)n1 (stereo not drawn) [Compound 40]	1000 to 3000 nM
CCOc1nc(N2C[C@@H]3CCCN[C@@H]3C2)ncc1C(=O)Nc1cc(F)c2nc(C)cn2c1 [Compound 197]	< 500 nM
CCOc1nc(N2CC[C@H](NC)C2)ncc1C(=O)Nc1cc(OC)c2nn(C)cc2c1 [Compound 298, (S)-4-ethoxy-N-(7-methoxy-2-methyl-2H-indazol-5-yl)-2-(3-(methylamino)pyrrolidin-1-yl)pyrimidine-5-carboxamide 4-methylbenzenesulfonate]	1000 to 3000 nM
CCOc1nc(N2CC3CNCC3C2)ncc1C(=O)Nc1cc(F)c2nc(C)oc2c1 (stereo not drawn) [Compound 14, 4-ethoxy-N-(4-fluoro-2-methyl-1,3-benzoxazol-6-yl)-2-{octahydropyrrolo[3,4-c]pyrrol-2-yl}pyrimidine-5-carboxamide]	< 500 nM
CCOc1nc(N(C)C2CCCNC2)ncc1C(=O)Nc1cc(F)c2nc(C)cn2c1 (stereo not drawn) [Compound 244]	< 500 nM
CCOc1nc(N(CC)C2CCNCC2)ncc1C(=O)Nc1cc(F)c2nn(C)cc2c1 [Compound 258, 4-ethoxy-2-(ethyl(piperidin-4-yl)amino)-N-(7-fluoro-2-methyl-2H-indazol-5-yl)pyrimidine-5-carboxamide formate]	< 500 nM
CCOc1nc(N2CCC3CCC(C2)N3)ncc1C(=O)Nc1cc(F)c2nc(C)cn2c1 (stereo not drawn) [Compound 167]	1000 to 3000 nM
CCOc1nc(N2CC(C)NCC2C)ncc1C(=O)Nc1cn2cc(C)nc2c(C)n1 (stereo not drawn) [Compound 32]	1000 to 3000 nM
CCOc1nc(N2CCC(NC)C2)ncc1C(=O)Nc1ccc2nc(C)cn2n1 (stereo not drawn) [Compound 319]	> 3000 nM
CCOc1nc(N2C[C@H]3CNCC[C@H]32)ncc1C(=O)Nc1cc(F)c2nc(C)cn2c1 (racemic) [Compound 245]	< 500 nM
Cc1cn2cc(NC(=O)c3cnc(N4CCNCC4)nc3)cc(F)c2n1 [Compound 21, N-{8-fluoro-2-methylimidazo[1,2-a]pyridin-6-yl}-2-(piperazin-1-yl)pyrimidine-5-carboxamide]	1000 to 3000 nM
CCOc1nc(N2CCCC3CNCCC32)ncc1C(=O)Nc1cc(F)c2nc(C)cn2c1 (stereo not drawn) [Compound 132]	< 500 nM
CCOc1nc(N2CCC(C3CCNC3)C2)ncc1C(=O)Nc1cc(F)c2nc(C)cn2c1 (stereo not drawn) [Compound 127]	500 to 1000 nM
CCNC1CCN(c2ncc(C(=O)Nc3cc(F)c4nc(C)cn4c3)c(OCC)n2)C1 (stereo not drawn) [Compound 154]	< 500 nM
CCOc1nc(N2CCC(CNC)CC2)ncc1C(=O)Nc1cn2cc(C)nc2c(C)n1 [Compound 76]	< 500 nM
COc1nc(N2CCNCC2)ncc1C(=O)Nc1cc(F)c2nc(C)cn2c1 [Compound 1, N-(8-fluoro-2-methylimidazo[1,2-a]pyridin-6-yl)-4-methoxy-2-(piperazin-1-yl)pyrimidine-5-carboxamide, HCl]	1000 to 3000 nM
CCOc1nc(N2CCN3CCCC3C2)ncc1C(=O)Nc1cc(F)c2nc(C)cn2c1 (stereo not drawn) [Compound 5, 4-ethoxy-N-{8-fluoro-2-methylimidazo[1,2-a]pyridin-6-yl}-2-{octahydropyrrolo[1,2-a]pyrazin-2-yl}pyrimidine-5-carboxamide]	1000 to 3000 nM
CCOc1nc(N2CC3(CCNCC3)[C@H]3COC[C@H]32)ncc1C(=O)Nc1cc(F)c2nc(C)cn2c1 (racemic) [Compound 124]	> 3000 nM
CCOc1nc(N2CCN[C@@H](C)C2)ncc1C(=O)Nc1cc(F)c2nn(C)cc2c1 [Compound 279, (S)-4-ethoxy-N-(7-fluoro-2-methyl-2H-indazol-5-yl)-2-(3-methylpiperazin-1-yl)pyrimidine-5-carboxamide formate]	< 500 nM
CCOc1nc(N2CC3(CNC3)C2)ncc1C(=O)Nc1cn2cc(C)nc2c(C)n1 [Compound 18, 2-{2,6-diazaspiro[3.3]heptan-2-yl}-N-{2,8-dimethylimidazo[1,2-a]pyrazin-6-yl}-4-ethoxypyrimidine-5-carboxamide]	< 500 nM
CCOc1nc(N2CCNCCC2C)ncc1C(=O)Nc1cc(F)c2nc(C)cn2c1 (stereo not drawn) [Compound 205]	500 to 1000 nM
CCOc1nc(N2CC(NC)C2)ncc1C(=O)Nc1cn2cc(C)nc2c(C)n1 [Compound 43]	> 3000 nM

same assay, conditions: Homo sapiens, HEK293, read-out: PMS1 IC50 (nM)

SMILES	IC50
CCOc1nc(N(CC)C2CCNCC2)ncc1C(=O)Nc1ccn2nc(C)cc2c1 [Compound 288, 4-ethoxy-2-(ethyl(piperidin-4-yl)amino)-N-(2-methylpyrazolo[1,5-a]pyridin-5-yl)pyrimidine-5-carboxamide formate]	500 to 1000 nM

same assay, conditions: Homo sapiens; at 5 μM; PMS1 mini-gene firefly luciferase reporter in HEK293 cells; read-out: PMS1% Effect at 5 μM

SMILES	activation at 5 µM
CCOc1nc(N2CC(C3CCNC3)C2)ncc1C(=O)Nc1cn2cc(C)nc2c(C)n1 (stereo not drawn) [Compound 69]	50 to 75%
CCOc1nc(N2CCN[C@@H](C)C2)ncc1C(=O)Nc1cn2cc(C)nc2c(C)n1 [Compound 19, N-{2,8-dimethylimidazo[1,2-a]pyrazin-6-yl}-4-ethoxy-2-[(3S)-3-methylpiperazin-1-yl]pyrimidine-5-carboxamide]	50 to 75%
CCOc1nc(C2=CCNC2)ncc1C(=O)Nc1cc(F)c2nc(C)cn2c1 [Compound 315, 2-(2,5-dihydro-1H-pyrrol-3-yl)-4-ethoxy-N-8-fluoro-2-methylimidazo[1,2-a]-pyridin-6-ylpyrimidine-5-carboxamide]	> 75%
CCOc1nc(N2CCCC3(CNCCO3)C2)ncc1C(=O)Nc1cc(F)c2nc(C)cn2c1 (stereo not drawn) [Compound 172]	< 50%
CCOc1nc(N2CC(C)OC3(CCNCC3)C2)ncc1C(=O)Nc1cc(F)c2nc(C)cn2c1 (stereo not drawn) [Compound 162]	< 50%

same assay, conditions: PMS1 mini-gene firefly luciferase reporter transiently transfected into HEK293 cells; hydrochloride; read-out: PMS1 IC50

SMILES	IC50
CCOc1nc(N2C[C@@H](C)N[C@@H](C)C2)ncc1C(=O)Nc1cc(F)c2nc(C)cn2c1 [Compound 4, 2-[(3R,5S)-3,5-dimethylpiperazin-1-yl]-4-ethoxy-N-{8-fluoro-2-methylimidazo[1,2-a]pyridin-6-yl}pyrimidine-5-carboxamide hydrochloride]	500 to 1000 nM
